Measurements reported in the NIST ThermoML archive (doi:10.1016/j.fluid.2010.10.028).
± gives the expanded uncertainty stated by the source.

Experiment: xn = mol fraction of the nth substance listed
Details: Liquid, Vibrating tube method

CC(C)=O [acetone] + CCCCCCC
Details | mass density [kg/m3]
397.28 K, 64890 kPa, x1 = 0.7024 | 708.2 ± 1.4
397.28 K, 69880 kPa, x1 = 0.7024 | 712.51 ± 1.5
397.28 K, 74860 kPa, x1 = 0.7024 | 716.61 ± 1.5
397.28 K, 74910 kPa, x1 = 0.492 | 698.27 ± 1.5
397.28 K, 74910 kPa, x1 = 0.801 | 727.94 ± 1.5
397.28 K, 74920 kPa, x1 = 0.611 | 707.37 ± 1.5
397.28 K, 79830 kPa, x1 = 0.7024 | 720.53 ± 1.5
397.28 K, 79900 kPa, x1 = 0.492 | 702.07 ± 1.6
397.28 K, 84840 kPa, x1 = 0.7024 | 724.33 ± 1.5
397.28 K, 84890 kPa, x1 = 0.492 | 705.69 ± 1.6
397.28 K, 89820 kPa, x1 = 0.7024 | 727.97 ± 1.6
397.28 K, 94800 kPa, x1 = 0.7024 | 731.49 ± 1.6
397.28 K, 94850 kPa, x1 = 0.492 | 712.56 ± 1.6
397.28 K, 99780 kPa, x1 = 0.7024 | 734.88 ± 1.6
397.28 K, 99820 kPa, x1 = 0.801 | 746.56 ± 1.6
397.28 K, 104760 kPa, x1 = 0.7024 | 738.15 ± 1.6
397.28 K, 109780 kPa, x1 = 0.801 | 753.14 ± 1.6
397.28 K, 114820 kPa, x1 = 0.7024 | 744.47 ± 1.7
397.28 K, 114850 kPa, x1 = 0.492 | 725.01 ± 1.7
397.28 K, 114850 kPa, x1 = 0.801 | 756.36 ± 1.6
397.28 K, 114870 kPa, x1 = 0.611 | 734.74 ± 1.7
397.28 K, 119800 kPa, x1 = 0.7024 | 747.44 ± 1.7
397.28 K, 119860 kPa, x1 = 0.611 | 737.69 ± 1.7
397.28 K, 124830 kPa, x1 = 0.7024 | 750.39 ± 1.7
397.28 K, 124840 kPa, x1 = 0.492 | 730.68 ± 1.8
397.28 K, 124840 kPa, x1 = 0.801 | 762.38 ± 1.7
397.28 K, 124860 kPa, x1 = 0.611 | 740.54 ± 1.8
397.28 K, 129790 kPa, x1 = 0.7024 | 753.19 ± 1.7
397.28 K, 129840 kPa, x1 = 0.492 | 733.39 ± 1.8
397.28 K, 129840 kPa, x1 = 0.611 | 743.3 ± 1.8
397.29 K, 19850 kPa, x1 = 0.492 | 638.92 ± 1.3
397.29 K, 24860 kPa, x1 = 0.492 | 646.54 ± 1.3
397.29 K, 39850 kPa, x1 = 0.492 | 665.68 ± 1.4
397.29 K, 49840 kPa, x1 = 0.492 | 676.28 ± 1.4
397.29 K, 69930 kPa, x1 = 0.492 | 694.29 ± 1.5
397.29 K, 89860 kPa, x1 = 0.492 | 709.18 ± 1.6
397.29 K, 99830 kPa, x1 = 0.492 | 715.82 ± 1.6
397.29 K, 104800 kPa, x1 = 0.492 | 718.94 ± 1.7
397.29 K, 109740 kPa, x1 = 0.7024 | 741.31 ± 1.6
397.29 K, 109770 kPa, x1 = 0.492 | 722 ± 1.7
397.29 K, 119840 kPa, x1 = 0.492 | 727.87 ± 1.8
407.2 K, 1850 kPa, x1 = 0.4 | 626.34 ± 1.2
407.2 K, 1850 kPa, x1 = 0.8992 | 626.34 ± 1.2
407.2 K, 5000 kPa, x1 = 0.4 | 635.78 ± 1.2
407.2 K, 5000 kPa, x1 = 0.8992 | 635.78 ± 1.2
407.2 K, 10000 kPa, x1 = 0.4 | 648.49 ± 1.2
407.2 K, 10000 kPa, x1 = 0.8992 | 648.49 ± 1.2
407.2 K, 14980 kPa, x1 = 0.4 | 659.29 ± 1.3
407.2 K, 14980 kPa, x1 = 0.8992 | 659.29 ± 1.2
407.2 K, 49890 kPa, x1 = 0.4 | 710.54 ± 1.4
407.2 K, 49890 kPa, x1 = 0.8992 | 710.54 ± 1.4
407.21 K, 1650 kPa, x1 = 0.611 | 594.88 ± 1.2
407.21 K, 1660 kPa, x1 = 0.801 | 612.07 ± 1.2
407.21 K, 4870 kPa, x1 = 0.611 | 604.63 ± 1.2
407.21 K, 4870 kPa, x1 = 0.801 | 621.91 ± 1.2
407.21 K, 9870 kPa, x1 = 0.611 | 617.29 ± 1.2
407.21 K, 14860 kPa, x1 = 0.801 | 645.72 ± 1.2
407.21 K, 14880 kPa, x1 = 0.611 | 627.98 ± 1.2
407.21 K, 19850 kPa, x1 = 0.801 | 655.22 ± 1.3
407.21 K, 19960 kPa, x1 = 0.4 | 668.77 ± 1.3
407.21 K, 19960 kPa, x1 = 0.8992 | 668.77 ± 1.3
407.21 K, 24940 kPa, x1 = 0.4 | 677.3 ± 1.3
407.21 K, 24940 kPa, x1 = 0.8992 | 677.3 ± 1.3
407.21 K, 29940 kPa, x1 = 0.4 | 685.05 ± 1.3
407.21 K, 29940 kPa, x1 = 0.8992 | 685.05 ± 1.3
407.21 K, 34930 kPa, x1 = 0.4 | 692.12 ± 1.3
407.21 K, 34930 kPa, x1 = 0.8992 | 692.12 ± 1.3
407.21 K, 39920 kPa, x1 = 0.4 | 698.68 ± 1.4
407.21 K, 39920 kPa, x1 = 0.8992 | 698.68 ± 1.3
407.21 K, 44900 kPa, x1 = 0.4 | 704.79 ± 1.4
407.21 K, 44900 kPa, x1 = 0.8992 | 704.79 ± 1.4
407.21 K, 54880 kPa, x1 = 0.4 | 715.92 ± 1.4
407.21 K, 54880 kPa, x1 = 0.8992 | 715.92 ± 1.4
407.21 K, 59880 kPa, x1 = 0.4 | 721.06 ± 1.4
407.21 K, 59880 kPa, x1 = 0.8992 | 721.06 ± 1.4
407.21 K, 64860 kPa, x1 = 0.4 | 725.91 ± 1.4
407.21 K, 64860 kPa, x1 = 0.8992 | 725.91 ± 1.4
407.21 K, 69840 kPa, x1 = 0.4 | 730.52 ± 1.5
407.21 K, 69840 kPa, x1 = 0.8992 | 730.52 ± 1.4
407.21 K, 74830 kPa, x1 = 0.4 | 734.95 ± 1.5
407.21 K, 74830 kPa, x1 = 0.8992 | 734.95 ± 1.5
407.21 K, 79810 kPa, x1 = 0.4 | 739.19 ± 1.5
407.21 K, 79810 kPa, x1 = 0.8992 | 739.19 ± 1.5
407.21 K, 84790 kPa, x1 = 0.4 | 743.24 ± 1.5
407.21 K, 84790 kPa, x1 = 0.8992 | 743.24 ± 1.5
407.21 K, 89780 kPa, x1 = 0.4 | 747.17 ± 1.5
407.21 K, 89780 kPa, x1 = 0.8992 | 747.17 ± 1.5
407.22 K, 1650 kPa, x1 = 0.492 | 588.49 ± 1.2
407.22 K, 4850 kPa, x1 = 0.492 | 597.92 ± 1.2
407.22 K, 9860 kPa, x1 = 0.801 | 634.81 ± 1.2
407.22 K, 19860 kPa, x1 = 0.611 | 637.25 ± 1.3
